From patent US20250073209A1, “COVALENT TARGETING OF RhoA FOR CANCER THERAPY” (The University of Hong Kong, priority 2023, published 2025) come the findings set out here.

Test [1] has as its target Rac1 (Homo sapiens, UniProt P63000). Description: Gel-based competitive ABPP, second screening on Rac1. Type of test: binding. On the procedure: Recombinant human RhoA (0.1 μg; ab101594) was pretreated with cysteine-reactive compounds or DMSO for 1 hour at room temperature, followed by incubation with iodoacetamide-rhodamine (IA-Rh; 1 μM) for 1 hour at room temperature. The reaction was then quenched by boiling in sampling buffer. Samples were subjected to SDS-PAGE to separate proteins bands. In-gel fluorescence intensity was measured with a Chemidoc using setting for Rhodamine. Gel was subsequently stained with silver stain (Pierce) for visualization of protein content and covalent modification. Band intensity was quantified using ImageJ.
CL16 was identified for its strong and specific binding with RhoA in covalent ligand screening experiment by ABPP. ABPP is known as a powerful platform for covalent ligand screening, particularly for the identification of lead compounds targeting new hotspots for therapy. Competitive gel-based activity-based protein profiling (ABPP) experiment was performed on purified RhoA protein for screening its interactions with a library of cysteine-reactive covalent ligands with acrylamide or chloroacetamide warheads. RhoA protein for the first screening and on Rac1 and Cdc42 for the second screening to identify lead compounds with specific binding onto RhoA Cys16. […] The reaction mixture was then resolved by SDS-PAGE and in-gel fluorescence was imaged (FIG. 1A). […]

The target of test [2] is T1, FLAG-RhoA (Homo sapiens, UniProt P61586).
T1 construct: expressed in transfected cells; host or cells: HCT116
T1 sequence (P61586 whole entry): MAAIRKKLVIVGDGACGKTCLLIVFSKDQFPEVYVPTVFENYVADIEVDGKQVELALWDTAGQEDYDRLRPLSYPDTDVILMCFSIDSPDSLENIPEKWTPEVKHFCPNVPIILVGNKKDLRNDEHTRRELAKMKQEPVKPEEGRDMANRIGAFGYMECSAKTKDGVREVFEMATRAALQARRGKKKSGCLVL
Description: CL16-alkyne labeling of FLAG-RhoA in HCT116 cells (anti-FLAG IP, CuAAC, in-gel fluorescence). Type of test: cell-based. Conditions: pre-incubation 2 h. On the procedure:
HCT116 cells transiently expressing FLAG-RhoA were pre-treated with solvent vehicle or CL16 for 2 h, followed by the incubation with CL16-alkyne in complete medium for another 2 h. The cells were then lysed and subjected to immunoprecipitation by anti-FLAG beads. The enriched proteins were reacted with rhodamine azide through copper-catalyzed azide-alkyne cycloaddition (CuAAC), boiled with sampling buffer and separated by SDS-PAGE. The protein bands were then visualized by their in-gel fluorescence or blotted for RhoA. […] HCT116 cells were pre-treated with solvent vehicle or CL16 for 2 h, followed by the incubation with CL16-alkyne in complete medium for another 2 h. The cells were then lysed, reacted with rhodamine azide through CuAAC, boiled with sampling buffer, separated by SDS-PAGE and imaged. […]
To identify protein target and any off-targets of CL16 in CRCs, a molecular probe of CL16, CL16-alkyne (FIG. 6A), was synthesized. […] The protein bands were then visualized by their in-gel fluorescence or blotted for RhoA. […] The probe-labeled proteins were installed with rhodamine through CuAAC, and visualized by their in-gel fluorescence after SDS-PAGE. A protein band with strong fluorescence was found at −22 kDa in the sample incubated with CL16-alkyne only, in line with the molecular weight of RhoA (FIG. 6C).

`O=C(CCl)N1N=C(c2cc3ccccc3o2)CC1c1ccco1` (centres unmarked) [CL16]: the “binding with Rac1” value in test [1] was “no observable binding”. In test [2], the “competition with CL16-alkyne labeling of FLAG-RhoA” value is listed as “competed with the alkyne probe labeling”.
